# Like-named read-outs stand apart in the source and are kept apart here.
# Legend:
# Type in all cases: cell-based
# Septoria tritici = assay: In vitro microtest of Septoria tritici; details: 3 days incubation
# Procedure: V.8. In vitro microtest of Septoria tritici
# The microtest was performed in liquid medium with potato-dextrose broth (PDB) using microlitre plates.
# (§1) The active compound is applied as the technical active substance dissolved in methanol. A spore suspension of Septoria tritici was used for inoculation. After 3 days of incubation by darkness under shaking (10 Hrz), the optical density in each cavity was evaluated with the aid of a microtitre plate reader. 0% means an efficacy which corresponds to that of the control, while an efficacy of 100% means that no fungal growth is observed.
# Penicillium brevicaule = assay: In vitro microtest of Penicillium brevicaule (optical density in PDB, microtitre plates); details: 7 days incubation
# Coriolus versicolor = assay: In vitro microtest of Coriolus versicolor; details: 3 days incubation
# Procedure: V.5. In vitro Microtest of Coriolus versicolor
# (§2) The microtest was performed in liquid medium with potato-dextrose broth (PDB) using microtitre plates.
# (§3) The active compound is applied as the technical active substance dissolved in methanol.
# as §1, with “A” for “The active compound is applied as the technical active substance dissolved in methanol. A”, “mycelium” for “spore”, “Coriolus versicolor” for “Septoria tritici”
# Rhizoctonia solani = assay: In vitro microtest of Rhizoctonia solani
# Procedure: V.10. In vitro Microtest of Rhizoctania solani
# as §2, §3
# A mycelium suspension of Rhizoctonia solani was used for inoculation. After 3 days (combinations A1+B3, A3+B2), 7 days (combination A2+B1), 4 days (combination A4+B2) or 5 days (combination A5+B1) of incubation by darkness under shaking (10 Hrz), the optical density in each cavity was evaluated with the aid of a microtitre plate reader.
# 0% means an efficacy which corresponds to that of the control, while an efficacy of 100% means that no fungal growth is observed.
# Gibberella zeae = tested on: Gibberella zeae
# Phytophthora cryptogea = assay: In vitro microtest of Phytophthora cryptogea; details: 3 ppm; 4 days incubation
# Procedure: V.11. In vitro Microtest of Phytophthora cryptogea
# as §2, §3
# as §1, with “A” for “The active compound is applied as the technical active substance dissolved in methanol. A”, “mycelium” for “spore”, “Phytophthora cryptogea” for “Septoria tritici”, “4” for “3”
# Botrytis cinerea = assay: In vitro microtest of Botrytis cinerea
# Procedure: V.9. In vitro microtest of Botrytis cinerea
# as §2, §3
# (§4) A spore suspension of Botrytis cinerea was used for inoculation. After 5 days (combination A2+B1), 4 days (combination A3+B3), or 7 days ( combination A5+B1) of incubation by darkness under shaking (10 Hrz), the optical density in each cavity was evaluated with the aid of a microtitre plate reader. 0% means an efficacy which corresponds to that of the control, while an efficacy of 100% means that no fungal growth is observed.
# Alternaria mali = assay: In vitro microtest of Alternaria mali; details: 3 ppm; 4 days incubation
# Procedure: V.6. In vitro Microtest of Alternaria mali
# as §2
# as §1, with “Alternaria mali” for “Septoria tritici”, “4” for “3”
# Pyricularia oryzae = tested on: Pyricularia oryzae
# Ustilago avenae = assay: In vitro microtest of Ustilago avenae; details: 1 ppm; 5 days incubation
# Procedure: V.12. In vitro Microtest of Ustilago avenae
# as §2, §3
# as §4, with “Ustilago avenae” for “Botrytis cinerea”, “days” for “days (combination A2+B1), 4 days (combination A3+B3), or 7 days ( combination A5+B1)”
smiles,measurement,setting,value
"Cc1nn(C)c(F)c1C(=O)Nc1ccccc1C(C)CC(C)C (centres unmarked) [A1, N-[2-(1,3-dimethylbutyl)phenyl]-5-fluoro-1,3-dimethyl-1H-pyrazole-4-carboxamide]",Efficacy in %,Septoria tritici; 0.01 ppm,4%
same,Efficacy in %,Penicillium brevicaule; 0.3 ppm,37%
same,Efficacy in %,Coriolus versicolor; 0.01 ppm,97%
same,Efficacy in %,"Rhizoctonia solani; 0.003 ppm, 3 days incubation",79%
same,Efficacy in %,"Gibberella zeae; 1 ppm, 4 days incubation",39%
"OC(Cc1ccccc1Cl)(Cn1nc[nH]c1=S)C1(Cl)CC1 (centres unmarked) [A2, Prothioconazole]",Efficacy in %,Phytophthora cryptogea,19%
same,Efficacy in %,Coriolus versicolor; 0.003 ppm,48%
same,Efficacy in %,"Rhizoctonia solani; 0.1 ppm, 7 days incubation",50%
same,Efficacy in %,"Botrytis cinerea; 0.3 ppm, 5 days incubation",40%
"CC(C)(C)C(O)(CCc1ccc(Cl)cc1)Cn1cncn1 (centres unmarked) [A3, Tebuconazole]",Efficacy in %,Alternaria mali,97%
same,Efficacy in %,"Pyricularia oryzae; 0.3 ppm, 5 days incubation",96%
same,Efficacy in %,"Rhizoctonia solani; 3 ppm, 3 days incubation",47%
same,Efficacy in %,"Gibberella zeae; 0.01 ppm, 3 days incubation",9%
same,Efficacy in %,"Botrytis cinerea; 0.1 ppm, 4 days incubation",33%
"CON=C(C(=O)OC)c1ccccc1CON=C(C)c1cccc(C(F)(F)F)c1 [A4, Trifloxystrobin]",Efficacy in %,"Pyricularia oryzae; 0.1 ppm, 3 days incubation",63%
same,Efficacy in %,Ustilago avenae,92%
same,Efficacy in %,"Rhizoctonia solani; 1 ppm, 4 days incubation",43%
same,Efficacy in %,"Gibberella zeae; 0.1 ppm, 3 days incubation",88%
same,Efficacy in %,"Gibberella zeae; 1 ppm, 5 days incubation",75%
"COCC(=O)N(c1c(C)cccc1C)C(C)C(=O)OC (centres unmarked) [A5, Metalaxyl]",Efficacy in %,"Rhizoctonia solani; 0.0003 ppm, 5 days incubation",80%
same,Efficacy in %,"Botrytis cinerea; 0.0003 ppm, 7 days incubation",4%
CCCCCC/C=C\CCCOc1cccc(C(=O)N[C@@H]2C(O[C@H]3C(O)C(NC(C)=O)C(O[C@@H]4C(CO)O[C@@H](O[C@H]5C(O)C(NC(C)=O)C(OC6C(CO[C@@H]7OC(C)C(O)[C@H](O)[C@H]7OC)OC(O)[C@@H](NC(C)=O)[C@H]6O)O[C@H]5CO)[C@@H](NC(C)=O)C4O)O[C@H]3CO)OC(CO)[C@@H](O)[C@@H]2O)c1 (some centres unmarked) [B1],Efficacy in %,Septoria tritici; 0.000001 ppm,1%
same,Efficacy in %,Penicillium brevicaule; 0.00003 ppm,0%
same,Efficacy in %,Coriolus versicolor; 0.000001 ppm,22%
same,Efficacy in %,"Pyricularia oryzae; 0.00001 ppm, 3 days incubation",2%
same,Efficacy in %,"Pyricularia oryzae; 0.00003 ppm, 5 days incubation",5%
same,Efficacy in %,"Rhizoctonia solani; 0.00000003 ppm, 5 days incubation",41%
same,Efficacy in %,"Rhizoctonia solani; 0.00001 ppm, 7 days incubation",9%
same,Efficacy in %,"Gibberella zeae; 0.000001 ppm, 3 days incubation",4%
same,Efficacy in %,"Gibberella zeae; 0.00001 ppm, 3 days incubation",12%
same,Efficacy in %,"Botrytis cinerea; 0.00000003 ppm, 7 days incubation",10%
same,Efficacy in %,"Botrytis cinerea; 0.00003 ppm, 5 days incubation",18%

# From patent US8440591B2, “Pesticidal composition comprising synthetic compound useful as nodulation agent of leguminous plants and a fungicide compound” (Bayer Cropscience AG, priority 2006, dated 2013)
